This note sets out measurements from US10793580B2, “Substituted pyrazoloazepin-8-ones and their use as phosphodiesterase inhibitors” (LEO Pharma A/S, priority 2016, dated 2020).

Sequence of human PDE4D catalytic domain (Q08499 380-740): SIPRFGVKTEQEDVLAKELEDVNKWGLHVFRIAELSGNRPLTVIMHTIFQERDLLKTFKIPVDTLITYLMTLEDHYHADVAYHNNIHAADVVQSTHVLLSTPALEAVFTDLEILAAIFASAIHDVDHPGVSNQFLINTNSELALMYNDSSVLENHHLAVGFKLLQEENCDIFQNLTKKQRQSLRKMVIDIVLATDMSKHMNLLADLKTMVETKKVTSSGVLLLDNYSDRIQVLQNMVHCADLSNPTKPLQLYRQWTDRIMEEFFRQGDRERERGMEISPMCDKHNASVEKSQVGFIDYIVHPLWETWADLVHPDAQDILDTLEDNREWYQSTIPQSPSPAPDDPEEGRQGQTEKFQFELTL

This assay deals with human PDE4D catalytic domain (Homo sapiens (Human), UniProt Q08499). Put plainly: PDE4 Assay (TR-FRET, FAM-cAMP cleavage). Format: biochemical. To be noted: human PDE4D catalytic domain (UniProt Q08499 [S380-L740]); 50% inhibition of substrate cleavage; read-out: PDE4 IC50 range. A digest of the protocol:
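PDE4D catalytic domain (S380-L740) incubated briefly with unlabelled cAMP plus FAM-cAMP and titrated compound. Reaction stopped with binding buffer holding metal-ion nanoparticles that bind AMP phospho groups and Tb donor, and AMP formation read by TR-FRET. IC50 versus controls, reported as ranges (nM).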
On the technique in general: Time-resolved FRET reads energy transfer from a long-lived donor to a nearby acceptor.
Consider `CCn1nc(CCCCOC(=O)c2ccc(F)cc2)c2c1C(=O)NCC1(CCOCC1)C2` [Example 124, 4-(1-ethyl-8-oxo-spiro[6,7-dihydro-4H-pyrazolo[3,4-c]azepine-5,4′-tetrahydropyran]-3-yl)butyl 4-fluorobenzoate], for which the IC50 (as a rule, the point on the concentration scale where inhibition reaches its midpoint) is < 100 nM.
On to `CCn1nc(CCCCOC(=O)c2ccc(OC)cc2)c2c1C(=O)NCC1(CCOCC1)C2` [Example 125, 4-(1-ethyl-8-oxo-spiro[6,7-dihydro-4H-pyrazolo[3,4-c]azepine-5,4′-tetrahydropyran]-3-yl)butyl 4-methoxybenzoate], for which the half-inhibitory concentration (IC50) was < 100 nM.
For the molecule `CCn1nc(CCCCOC(=O)c2ccc(C(C)=O)cc2)c2c1C(=O)NCC1(CCOCC1)C2` [Example 126, 4-(1-ethyl-8-oxo-spiro[6,7-dihydro-4H-pyrazolo[3,4-c]azepine-5,4′-tetrahydropyran]-3-yl)butyl 4-acetylbenzoate], the IC50 is < 100 nM.
For `CCn1nc(CCCCOC(=O)c2ccc(C(N)=O)cc2)c2c1C(=O)NCC1(CCOCC1)C2` [Example 127, 4-(1-ethyl-8-oxo-spiro[6,7-dihydro-4H-pyrazolo[3,4-c]azepine-5,4′-tetrahydropyran]-3-yl)butyl 4-carbamoylbenzoate], the IC50 was < 100 nM.
Turning to `CCn1nc(CCCCOC(=O)c2ccc(C(=O)NC)cc2)c2c1C(=O)NCC1(CCOCC1)C2` [Example 128, 4-(1-ethyl-8-oxo-spiro[6,7-dihydro-4H-pyrazolo[3,4-c]azepine-5,4′-tetrahydropyran]-3-yl)butyl 4-(methyl-carbamoyl)benzoate], the half-maximal inhibitory concentration (IC50) is < 100 nM.
Regarding `CCn1nc(CCCCOC(=O)c2ccc(C(=O)N(C)C)cc2)c2c1C(=O)NCC1(CCOCC1)C2` [Example 129, 4-(1-ethyl-8-oxo-spiro[6,7-dihydro-4H-pyrazolo[3,4-c]azepine-5,4′-tetrahydropyran]-3-yl)butyl 4-(dimethyl-carbamoyl)benzoate], the IC50 is < 100 nM.
For the molecule `CCn1nc(CCCCOC(=O)c2ccc(S(C)(=O)=O)cc2)c2c1C(=O)NCC1(CCOCC1)C2` [Example 130, 4-(1-ethyl-8-oxo-spiro[6,7-dihydro-4H-pyrazolo[3,4-c]azepine-5,4′-tetrahydropyran]-3-yl)butyl 4-methylsulfonyl-benzoate], the IC50 is < 100 nM.
`CCn1nc(CCCCOC(=O)c2ccc(S(=O)(=O)NC)cc2)c2c1C(=O)NCC1(CCOCC1)C2` [Example 131, 4-(1-ethyl-8-oxo-spiro[6,7-dihydro-4H-pyrazolo[3,4-c]azepine-5,4′-tetrahydropyran]-3-yl)butyl 4-(methyl-sulfamoyl)benzoate]: the half-maximal inhibitory concentration (IC50) is < 100 nM.
For `CCn1nc(CCCCOC(=O)c2ccc(S(=O)(=O)N(C)C)cc2)c2c1C(=O)NCC1(CCOCC1)C2` [Example 132, 4-(1-ethyl-8-oxo-spiro[6,7-dihydro-4H-pyrazolo[3,4-c]azepine-5,4′-tetrahydropyran]-3-yl)butyl 4-(dimethyl-sulfamoyl)benzoate], the IC50 was < 100 nM.
As to `CCn1nc(CCCCOC(=O)c2ccc(C(=O)N3CCOCC3)cc2)c2c1C(=O)NCC1(CCOCC1)C2` [Example 133, 4-(1-ethyl-8-oxo-spiro[6,7-dihydro-4H-pyrazolo[3,4-c]azepine-5,4′-tetrahydropyran]-3-yl)butyl 4-(morpholine-4-carbonyl)benzoate], the IC50 is < 100 nM.
As to `CCn1nc(CCOC(=O)C2CCCC2)c2c1C(=O)NCC1(CCOCC1)C2` [Example 134, 2-(1-ethyl-8-oxo-spiro-[6,7-dihydro-4H-pyrazolo-[3,4-c]azepine-5,4′-tetra-hydropyran]-3-yl)ethyl cyclopentanecarboxylate], the IC50 was < 100 nM.
On to `CCn1nc(CCOC(=O)c2ccc(C)cc2)c2c1C(=O)NCC1(CCOCC1)C2` [Example 135, 2-(1-ethyl-8-oxo-spiro[6,7-dihydro-4H-pyrazolo[3,4-c]azepine-5,4′-tetrahydropyran]-3-yl)ethyl 4-methylbenzoate], for which the half-maximal inhibitory concentration (IC50) is < 100 nM.
With `CCn1nc(CCOC(=O)c2ccc(S(C)(=O)=O)cc2)c2c1C(=O)NCC1(CCOCC1)C2` [Example 136, 2-(1-ethyl-8-oxo-spiro-[6,7-dihydro-4H-pyrazolo-[3,4-c]azepine-5,4′-tetra-hydropyran]-3-yl)ethyl 4-methylsulfonylbenzoate], the IC50 was < 100 nM.
For `CCn1nc(C[C@@H](C)COC(=O)CCOC)c2c1C(=O)NCC1(CCOCC1)C2` [Example 137, [(2R)-3-(1-ethyl-8-oxo-spiro[6,7-dihydro-4H-pyrazolo[3,4-c]azepine-5,4′-tetrahydropyran]-3-yl)-2-methyl-propyl] 3-methoxypropanoate], the IC50 was < 100 nM.
Turning to `CCn1nc(C[C@@H](C)COC(=O)[C@H]2C[C@@H](O)C2)c2c1C(=O)NCC1(CCOCC1)C2` [Example 138, [(2R)-3-(1-ethyl-8-oxo-spiro[6,7-dihydro-4H-pyrazolo[3,4-c]azepine-5,4′-tetrahydropyran]-3-yl)-2-methyl-propyl] 3-hydroxy-cyclobutanecarboxylate], the IC50 was < 100 nM.
Take `CCn1nc(C[C@@H](C)COC(=O)CCSC)c2c1C(=O)NCC1(CCOCC1)C2` [Example 139, [(2R)-3-(1-ethyl-8-oxo-spiro[6,7-dihydro-4H-pyrazolo[3,4-c]azepine-5,4′-tetrahydropyran]-3-yl)-2-methyl-propyl] 3-methylsulfanylpropanoate]: the 50% inhibitory concentration (IC50) is < 100 nM.
Take `CCn1nc(C[C@@H](C)COC(=O)c2ccc(C)cc2)c2c1C(=O)NCC1(CCOCC1)C2` [Example 140, [(2R)-3-(1-ethyl-8-oxo-spiro[6,7-dihydro-4H-pyrazolo[3,4-c]azepine-5,4′-tetrahydropyran]-3-yl)-2-methyl-propyl] 4-methylbenzoate]: the IC50 is < 100 nM.
With `CCn1nc(C[C@@H](C)COC(=O)c2ccccc2C)c2c1C(=O)NCC1(CCOCC1)C2` [Example 141, [(2R)-3-(1-ethyl-8-oxo-spiro[6,7-dihydro-4H-pyrazolo[3,4-c]azepine-5,4′-tetrahydropyran]-3-yl)-2-methyl-propyl] 2-methylbenzoate], the concentration for half-maximal inhibition (IC50) was < 100 nM.
On to `CCn1nc(C[C@@H](C)COC(=O)c2cccc(C)c2)c2c1C(=O)NCC1(CCOCC1)C2` [Example 142, [(2R)-3-(1-ethyl-8-oxo-spiro[6,7-dihydro-4H-pyrazolo[3,4-c]azepine-5,4′-tetrahydropyran]-3-yl)-2-methyl-propyl] 3-methylbenzoate], for which the half-maximal inhibitory concentration (IC50) was < 100 nM.
Take `CCn1nc(C[C@@H](C)COC(=O)c2cccc(F)c2)c2c1C(=O)NCC1(CCOCC1)C2` [Example 143, [(2R)-3-(1-ethyl-8-oxo-spiro[6,7-dihydro-4H-pyrazolo[3,4-c]azepine-5,4′-tetrahydropyran]-3-yl)-2-methyl-propyl] 3-fluorobenzoate]: the half-maximal inhibitory concentration (IC50) is < 100 nM.
Under `CCn1nc(C[C@@H](C)COC(=O)c2ccccc2F)c2c1C(=O)NCC1(CCOCC1)C2` [Example 144, [(2R)-3-(1-ethyl-8-oxo-spiro[6,7-dihydro-4H-pyrazolo[3,4-c]azepine-5,4′-tetrahydropyran]-3-yl)-2-methyl-propyl] 2-fluorobenzoate] stands < 100 nM; under `CCn1nc(C[C@@H](C)COC(=O)c2ccc(F)cc2)c2c1C(=O)NCC1(CCOCC1)C2` [Example 145, [(2R)-3-(1-ethyl-8-oxo-spiro[6,7-dihydro-4H-pyrazolo[3,4-c]azepine-5,4′-tetrahydropyran]-3-yl)-2-methyl-propyl] 4-fluorobenzoate], < 100 nM.
